Assay results published in paper PMC11871066, “Structure-based discovery of hydrocarbon-stapled paxillin peptides that block FAK scaffolding in cancer” (Nature Communications, 2025).
Read-outs that look alike come from different tables or passages of the source. One block for each compound: values may come before it. Bridge positions count the residues as written; N and C are the ends. Square brackets hold non-standard residues; d marks the D form. Peptide text beside a SMILES is read from it. R8 = C=CCCCCCC[C@@](C)(N)C(=O)O; R5 = C=CCCC[C@@](C)(N)C(=O)O; S5 = C=CCCC[C@](C)(N)C(=O)O

Key:
FAK FAT domain = target: T1, FAK FAT domain (Homo sapiens, UniProt Q05397); assay: SPR binding to immobilized biotinylated FAK FAT
T1 sequence (Q05397 914-1045 limits assumed): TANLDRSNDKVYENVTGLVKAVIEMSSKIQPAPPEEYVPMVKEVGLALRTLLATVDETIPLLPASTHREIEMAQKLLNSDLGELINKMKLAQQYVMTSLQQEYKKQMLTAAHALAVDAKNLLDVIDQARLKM
Procedure: SPR binding studies were performed using biotinylated FAK FAT protein[51]. Briefly, SPR binding assays were performed on a ForteBio Pioneer FE SPR system using SPR running buffer (100 mM Tris-Cl pH 8.0, 200 mM NaCl, and 0.05% Tween-20). […] Desired immobilization levels were determined utilizing the following Eq. 1:1 Rmax=RproteinxMranalyte/MrproteinxVprotein where Rmax is the highest possible response of binding between the analyte and the protein, Rprotein is the change in response by the immobilization of the protein, Mr represents the mass of the analyte or protein, and Vprotein represents the number of binding sites on the protein. A target Rmax of approximately 100 RU was chosen.
All samples were diluted in the SPR buffer to a volume of 200 µl and injected using the OneStep gradient injection system at a flow rate of 150 µl/min. For a bulk standard control, a 3% (w\v) solution of sucrose in SPR buffer was used for injection. […] SPR data analysis utilized Qdat software (ForteBio, version 4.3.2 build 8) for normalization of the baseline prior to injection, channel alignment, and reference channel and blank subtraction.

[1] = target: T2, FAK FAT / TAMRA-paxillin LD2 L10D (Homo sapiens, UniProt Q05397); assay: Fluorescence polarization competition (FAK-paxillin) assay; assay type: binding
T2 construct: assay was performed using FAK FAT protein and TAMRA-LD2 L10D peptide
T2 sequence (Q05397 919-1052): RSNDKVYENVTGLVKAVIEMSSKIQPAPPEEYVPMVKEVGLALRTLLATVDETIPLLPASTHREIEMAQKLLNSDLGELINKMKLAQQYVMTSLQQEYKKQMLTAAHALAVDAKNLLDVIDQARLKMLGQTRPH
Procedure: The IC50 was calculated using a four-parameter dose-response inhibition model, with the bottom fit constrained to the lower plateau of the binding curve.

trypsin = assay: Trypsin proteolytic resistance assay; settings: immobilized trypsin-agarose resin
Procedure: Cell permeability of peptide drugs was determined by fluorescence measurement of TAMRA-labeled peptides in 96-well plates and ClarioStar Plus plate reader using BMG ClarioStar MARS software (version 4.20). […] Percent uptake was calculated as background-subtracted fluorescence absorbed by cells/fluorescence of peptide in media-only wells, then made relative to TAMRA-Alkyne. Three biological replicates (n = 3) were performed per cell line per treatment group. Peptide proteolysis was measured using immobilized Trypsin-agarose resin (Thermo Fisher) and quantification by LC-MS. […] In vivo pharmacokinetics were performed by the UACC Analytical Chemistry Shared Resource. […] The mice were fed NIH-31 irradiated pellets (Tekland Premier, Madison, Wisconsin), and reverse osmosis water was freely available. […] The average plasma concentration versus time data were analyzed using PKSolver (version 2.0) by a noncompartmental approach.

Plasma stability = settings: mouse plasma
[2] = one-site kinetic fit, mean ± SD of n = 2-5 biological replicates, Tris pH 8.0, read-out: SPR KD

Structure (SMILES): CC(=O)N[C@@H](CC(N)=O)C(=O)N[C@@H](CC(C)C)C(=O)N[C@@H](CO)C(=O)N[C@]1(C)CCCCCCC=CCCC[C@@](C)(C(=O)N[C@@H](CC(C)C)C(=O)N[C@@H](CC(N)=O)C(N)=O)NC(=O)[C@H](CC(C)C)NC(=O)[C@H](CC(C)C)NC(=O)[C@H](CC(C)C)NC(=O)[C@H](CCCNC(=N)N)NC(=O)[C@H](CC(=O)O)NC(=O)[C@H](CC(C)C)NC1=O [compound 1905] (Ac-NLS[R8]LDRLLL[S5]LN-NH2; staple 4-11)
Kd (FAK FAT domain; [2]): 146 µM
Ki ([1]; Rep1, read-out: FP (Ki) data): > 1250 µM
Ki ([1]; Rep2, read-out: FP (Ki) data): > 1250 µM
Ki ([1]; Rep3, read-out: FP (Ki) data): > 1250 µM

Structure (SMILES): CC(=O)N[C@@H](CC(N)=O)C(=O)N[C@@H](CC(C)C)C(=O)N[C@]1(C)CCCCCCC=CCCC[C@@](C)(C(=O)N[C@@H](CCC(=O)O)C(=O)N[C@@H](CC(C)C)C(=O)N[C@@H](CC(N)=O)C(N)=O)NC(=O)[C@H](CC(C)C)NC(=O)[C@H](CC(C)C)NC(=O)[C@H](CCCNC(=N)N)NC(=O)[C@H](CC(=O)O)NC(=O)[C@H](CC(C)C)NC(=O)[C@H](CCC(=O)O)NC1=O [compound 1907]
half-life at 100 µM (trypsin): 28.4 h
remaining at 0.25 h, 100 µM (trypsin): 80%
remaining at 0.5 h, 100 µM (trypsin): 73%
remaining at 1 h, 100 µM (trypsin): 72%
remaining at 2 h, 100 µM (trypsin): 73%
remaining at 3 h, 100 µM (trypsin): 62%
remaining at 4 h, 100 µM (trypsin): 58%
remaining at 8 h, 100 µM (trypsin): 56%
remaining at 24 h, 100 µM (trypsin): 43%
remaining at 48 h, 100 µM (trypsin): 31%

Structure (SMILES): CC(=O)N[C@@H](CC(N)=O)C(=O)N[C@@H](CC(C)C)C(=O)N[C@]1(C)CCCCCCC=CCCC[C@@](C)(C(=O)N[C@@H](CCC(N)=O)C(=O)N[C@@H](CC(C)C)C(=O)N[C@@H](CC(N)=O)C(N)=O)NC(=O)[C@H](CC(C)C)NC(=O)[C@H](CC(C)C)NC(=O)[C@H](CCCNC(=N)N)NC(=O)[C@H](CC(=O)O)NC(=O)[C@H](CC(C)C)NC(=O)[C@H](CCC(N)=O)NC1=O [compound 1910] (Ac-NL[R8]QLDRLL[S5]QLN-NH2; staple 3-10)
Kd (FAK FAT domain; [2]): 22.6 µM

Structure (SMILES): CC(=O)N[C@@H](CC(N)=O)C(=O)N[C@@H](CC(C)C)C(=O)N[C@@H](CO)C(=O)N[C@@H](CCC(=O)O)C(=O)N[C@]1(C)CCCCCCC=CCCC[C@@](C)(C(=O)N[C@@H](CC(N)=O)C(N)=O)NC(=O)[C@H](CCC(=O)O)NC(=O)[C@H](CC(C)C)NC(=O)[C@H](CC(C)C)NC(=O)[C@H](CC(C)C)NC(=O)[C@H](CCCNC(=N)N)NC(=O)[C@H](CC(=O)O)NC1=O [compound 1914] (Ac-NLSE[R8]DRLLLE[S5]N-NH2; staple 5-12)
Kd (FAK FAT domain; [2]): 120 µM
Ki ([1]; Rep1, read-out: FP (Ki) data): > 1250 µM
Ki ([1]; Rep2, read-out: FP (Ki) data): > 1250 µM
Ki ([1]; Rep3, read-out: FP (Ki) data): > 1250 µM

Structure (SMILES): CC(=O)N[C@@H](CC(N)=O)C(=O)N[C@@H](CC(C)C)C(=O)N[C@@H](CO)C(=O)N[C@@H](CCC(=O)O)C(=O)N[C@@]1(C)CCCC=CCCC[C@@](C)(C(=O)N[C@@H](CC(C)C)C(=O)N[C@@H](CCC(=O)O)C(=O)N[C@@H](CC(C)C)C(=O)N[C@@H](CC(N)=O)C(N)=O)NC(=O)[C@H](CC(C)C)NC(=O)[C@H](CCCNC(=N)N)NC(=O)[C@H](CC(=O)O)NC1=O [compound 1919] (Ac-NLSE[S5]DRL[S5]LELN-NH2; staple 5-9)
Kd (FAK FAT domain; [2]): 80.6 µM

Structure (SMILES): CC(=O)N[C@@H](CO)C(=O)N[C@@H](CC(C)C)C(=O)NCC(=O)N[C@@H](CO)C(=O)N[C@@H](CC(N)=O)C(=O)N[C@@H](CC(C)C)C(=O)N[C@]1(C)CCCCCCC=CCCC[C@@](C)(C(=O)N[C@@H](CCC(=O)O)C(=O)N[C@@H](CC(C)C)C(=O)N[C@@H](CC(N)=O)C(=O)N[C@@H](C)C(=O)N[C@H](C(=O)N[C@@H](CCC(N)=O)C(=O)N[C@@H](Cc2c[nH]cn2)C(N)=O)C(C)C)NC(=O)[C@H](CC(C)C)NC(=O)[C@H](CC(C)C)NC(=O)[C@H](CCCNC(=N)N)NC(=O)[C@H](CC(=O)O)NC(=O)[C@H](CC(C)C)NC(=O)[C@H](CCC(=O)O)NC1=O [compound 1920] (Ac-SLGSNL[R8]ELDRLL[S5]ELNAVQH-NH2; staple 7-14)
Kd (FAK FAT domain; two-site model, site 1, mean ± SD, read-out: SPR KD1): 0.9 ± 0.5 µM
Kd (FAK FAT domain; two-site model, site 2, mean ± SD, read-out: SPR KD2): 9.8 ± 6.9 µM

Structure (SMILES): CC(=O)N[C@]1(C)CCCCCCC=CCCC[C@@](C)(C(N)=O)NC(=O)[C@H](CC(C)C)NC(=O)[C@H](CC(C)C)NC(=O)[C@H](CCCNC(=N)N)NC(=O)[C@H](CC(=O)O)NC(=O)[C@H](CC(C)C)NC(=O)[C@H](CCC(=O)O)NC1=O [compound 2011] (Ac-[R8]ELDRLL[S5]-NH2; staple 1-8)
Kd (FAK FAT domain; Rep1, read-out: SPR (KD)): > 200 µM
Kd (FAK FAT domain; Rep2, read-out: SPR (KD)): > 200 µM
Kd (FAK FAT domain; Rep3, read-out: SPR (KD)): > 200 µM
Kd (FAK FAT domain; read-out: SPR KD, pH 8): > 200 µM
Ki [1]: > 333 µM
Ki ([1]; Rep2, read-out: FP (Ki) data): > 333 µM

Structure (SMILES): CC(=O)N[C@@H](CC(N)=O)C(=O)N[C@@H](CC(C)C)C(=O)N[C@@H](CO)C(=O)N[C@@H](CCC(=O)O)C(=O)N[C@@H](CC(C)C)C(=O)N[C@@H](CC(=O)O)C(=O)N[C@@H](CCCNC(=N)N)C(=O)N[C@@]1(C)CCCC=CCCC[C@@](C)(C(=O)N[C@@H](CC(N)=O)C(N)=O)NC(=O)[C@H](CCC(=O)O)NC(=O)[C@H](CC(C)C)NC(=O)[C@H](CC(C)C)NC1=O [compound 2015] (Ac-NLSELDR[S5]LLE[S5]N-NH2; staple 8-12)
Kd (FAK FAT domain): 30.6 µM

Next, values leading:

Kd (FAK FAT domain; Rep1, read-out: SPR (KD)): > 200 µM
Kd (FAK FAT domain; Rep2, read-out: SPR (KD)): > 200 µM
Kd (FAK FAT domain; Rep3, read-out: SPR (KD)): > 200 µM
Kd (FAK FAT domain; [2]): > 200 µM
Structure (SMILES): CC(=O)N[C@@H](CC(N)=O)C(=O)N[C@@H](CC(C)C)C(=O)N[C@@H](CO)C(=O)N[C@@H](CCC(=O)O)C(=O)N[C@@H](CC(C)C)C(=O)N[C@@H](CC(=O)O)C(=O)N[C@@H](CCCNC(=N)N)C(=O)N[C@@H](CC(C)C)C(=O)N[C@]1(C)CCCC=CCCC[C@@](C)(C(=O)N[C@@H](CC(N)=O)C(N)=O)NC(=O)[C@H](CCC(=O)O)NC(=O)[C@H](CC(C)C)NC1=O [compound 1921] (Ac-NLSELDRL[R5]LE[S5]N-NH2; staple 9-12)

Kd (FAK FAT domain; [2]): 60.6 µM
Structure (SMILES): CC(=O)N[C@@H](CC(N)=O)C(=O)N[C@@H](CC(C)C)C(=O)N[C@]1(C)CCCCCCC=CCCC[C@@](C)(C(=O)N[C@@H](CCC(=O)O)C(=O)N[C@@H](CC(C)C)C(=O)N[C@@H](CC(N)=O)C(N)=O)NC(=O)[C@H](Cc2c[nH]c3ccccc23)NC(=O)[C@H](CC(C)C)NC(=O)[C@H](CCCNC(=N)N)NC(=O)[C@H](CC(=O)O)NC(=O)[C@H](CC(C)C)NC(=O)[C@H](CCC(=O)O)NC1=O [compound 2007]

Kd (FAK FAT domain; [2]): 3.4 µM
Structure (SMILES): CC(=O)N[C@@H](CC(N)=O)C(=O)N[C@@H](CC(C)C)C(=O)N[C@]1(C)CCCCCCC=CCCC[C@@](C)(C(=O)N[C@@H](CCC(=O)O)C(=O)N[C@@H](CC(C)C)C(=O)N[C@@H](CC(N)=O)C(N)=O)NC(=O)[C@H](CC(C)C)NC(=O)[C@H](CC(C)C)NC(=O)[C@H](CCCNC(=N)N)NC(=O)[C@H](CC(=O)O)NC(=O)[C@H](CC(C)C)NC(=O)[C@H](C)NC1=O [compound 2009]

Kd (FAK FAT domain; [2]): 27.9 µM
Structure (SMILES): CC(=O)N[C@@H](CC(N)=O)C(=O)N[C@]1(C)CCCCCCC=CCCC[C@@](C)(C(=O)N[C@@H](CC(C)C)C(=O)N[C@@H](CCC(=O)O)C(=O)N[C@@H](CC(C)C)C(=O)N[C@@H](CC(N)=O)C(N)=O)NC(=O)[C@H](CC(C)C)NC(=O)[C@H](CCCNC(=N)N)NC(=O)[C@H](CC(=O)O)NC(=O)[C@H](CC(C)C)NC(=O)[C@H](CCC(=O)O)NC(=O)[C@H](CO)NC1=O [compound 2017] (Ac-N[R8]SELDRL[S5]LELN-NH2; staple 2-9)

% remaining in plasma (Plasma stability; 0 min, Rep1): 105%
% remaining in plasma (Plasma stability; 0 min, Rep2): 100%
% remaining in plasma (Plasma stability; 0 min, Rep3): 95%
% remaining in plasma (Plasma stability; 15 min, Rep1): 85%
% remaining in plasma (Plasma stability; 15 min, Rep2): 78%
% remaining in plasma (Plasma stability; 15 min, Rep3): 86%
% remaining in plasma (Plasma stability; 30 min, Rep1): 73%
% remaining in plasma (Plasma stability; 30 min, Rep2): 70%
% remaining in plasma (Plasma stability; 30 min, Rep3): 68%
% remaining in plasma (Plasma stability; 60 min, Rep1): 58%
% remaining in plasma (Plasma stability; 60 min, Rep2): 52%
% remaining in plasma (Plasma stability; 60 min, Rep3): 50%
% remaining in plasma (Plasma stability; 90 min, Rep1): 30%
% remaining in plasma (Plasma stability; 90 min, Rep2): 42%
% remaining in plasma (Plasma stability; 90 min, Rep3): 36%
% remaining in plasma (Plasma stability; 120 min, Rep1): 29%
% remaining in plasma (Plasma stability; 120 min, Rep2): 31%
% remaining in plasma (Plasma stability; 120 min, Rep3): 27%
plasma stability t1/2 (Plasma stability; n = 3): 1.1 h
Structure (SMILES): CC(C)[N+](C)(CCOC(=O)C1c2ccccc2Oc2ccccc21)C(C)C [propantheline bromide]
